Results taken from PubChem BioAssay (NCI).
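48-hour exposure; five concentrations; linearly interpolated endpoints. GI50 is the concentration that inhibits growth by half. At the TGI there is no net growth.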

Assays:
Assay in all cases: NCI-60 cell line screen, 48 h
786-0 renal = test system: 786-0 renal
A498 renal = test system: A498 renal
A549 NSCLC = test system: A549 NSCLC
ACHN renal = test system: ACHN renal
BT-549 breast = test system: BT-549 breast
CAKI-1 renal = test system: CAKI-1 renal
CCRF-CEM leukemia = test system: CCRF-CEM leukemia
COLO 205 colon = test system: COLO 205 colon
DU-145 prostate = test system: DU-145 prostate
EKVX NSCLC = test system: EKVX NSCLC
HCC-2998 colon = test system: HCC-2998 colon
HCT-116 colon = test system: HCT-116 colon
HCT-15 colon = test system: HCT-15 colon
HL-60(TB) leukemia = test system: HL-60(TB) leukemia
HOP-62 NSCLC = test system: HOP-62 NSCLC
HOP-92 NSCLC = test system: HOP-92 NSCLC
HS 578T breast = test system: HS 578T breast
HT29 colon = test system: HT29 colon
IGROV1 ovarian = test system: IGROV1 ovarian
K-562 leukemia = test system: K-562 leukemia
KM12 colon = test system: KM12 colon
LOX IMVI melanoma = test system: LOX IMVI melanoma
M14 melanoma = test system: M14 melanoma
MALME-3M melanoma = test system: MALME-3M melanoma
MCF7 breast = test system: MCF7 breast
MDA-MB-231 breast = test system: MDA-MB-231 breast
MDA-MB-435 = test system: MDA-MB-435
MOLT-4 leukemia = test system: MOLT-4 leukemia
NCI-H226 lung = test system: NCI-H226 lung

C/C(=N/N=C(N)N)c1ccc(NC(=O)Nc2ccc(/C(C)=N/N=C(N)N)cc2)cc1
GI50 (786-0 renal): 10.7 µM
TGI (786-0 renal): 30.1 µM
GI50 (A498 renal): 23.5 µM
TGI (A498 renal): 69.9 µM
GI50 (A549 NSCLC): 19.4 µM
TGI (A549 NSCLC): 54.8 µM
GI50 (ACHN renal): 20.7 µM
TGI (ACHN renal): > 55.4 µM
GI50 (BT-549 breast): 14.8 µM
TGI (BT-549 breast): 38.7 µM
GI50 (CAKI-1 renal): 22.4 µM
TGI (CAKI-1 renal): > 100 µM
GI50 (CCRF-CEM leukemia): 21.7 µM
TGI (CCRF-CEM leukemia): 97.8 µM
GI50 (COLO 205 colon): 43.3 µM
TGI (COLO 205 colon): > 100 µM
GI50 (DU-145 prostate): 11.2 µM
TGI (DU-145 prostate): 40.1 µM
GI50 (EKVX NSCLC): 19.2 µM
TGI (EKVX NSCLC): 49 µM
GI50 (HCC-2998 colon): 23.4 µM
TGI (HCC-2998 colon): 81.5 µM
GI50 (HCT-116 colon): 28 µM
TGI (HCT-116 colon): > 100 µM
GI50 (HCT-15 colon): 25.5 µM
TGI (HCT-15 colon): > 77.6 µM
GI50 (HL-60(TB) leukemia): 7.89 µM
TGI (HL-60(TB) leukemia): > 28.4 µM
GI50 (HOP-62 NSCLC): 21.8 µM
TGI (HOP-62 NSCLC): > 60.3 µM
GI50 (HOP-92 NSCLC): 14.2 µM
TGI (HOP-92 NSCLC): 33.8 µM
GI50 (HS 578T breast): 26.5 µM
TGI (HS 578T breast): > 66.6 µM
GI50 (HT29 colon): 27.3 µM
TGI (HT29 colon): > 100 µM
GI50 (IGROV1 ovarian): 7.47 µM
TGI (IGROV1 ovarian): 23.9 µM
GI50 (K-562 leukemia): 5.84 µM
TGI (K-562 leukemia): > 59.9 µM
GI50 (KM12 colon): 9.78 µM
TGI (KM12 colon): > 77.7 µM
GI50 (LOX IMVI melanoma): 21.5 µM
TGI (LOX IMVI melanoma): > 70.1 µM
GI50 (M14 melanoma): 35.7 µM
TGI (M14 melanoma): > 75.1 µM
GI50 (MALME-3M melanoma): 16.5 µM
TGI (MALME-3M melanoma): 46.9 µM
GI50 (MCF7 breast): 4.48 µM
TGI (MCF7 breast): 31.2 µM
GI50 (MDA-MB-231 breast): 20 µM
TGI (MDA-MB-231 breast): 71.2 µM
GI50 (MDA-MB-435): 16 µM
TGI (MDA-MB-435): > 83.8 µM
GI50 (MOLT-4 leukemia): 25.7 µM
TGI (MOLT-4 leukemia): > 100 µM
GI50 (NCI-H226 lung): 25 µM
TGI (NCI-H226 lung): > 94.6 µM
